# Earlier results in article PMC12162873, “Modulating phosphatase DUSP22 with BML-260 ameliorates skeletal muscle wasting via Akt independent JNK-FOXO3a repression” (EMBO Molecular Medicine, 2025).
# Assays:
# JNK = test system: JNK; design: method as in ref [19] Bennett et al, 2001; conditions: ref [19] Bennett et al, 2001; cited from earlier work
# aldose reductase = test system: aldose reductase; design: method as in Ramirez and Borja, 2008; conditions: drug for diabetic neuropathy; ref Ramirez and Borja, 2008; cited from earlier work
SMILES,selectivity versus a range of kinases and enzymes tested (JNK),safety and tolerability (aldose reductase)
Oc1c2ccccc2c2c3c(cccc13)N=N2 [SP600125],> 20 -fold,–
CC(/C=C1\SC(=S)N(CC(=O)O)C1=O)=C\c1ccccc1 [Epalrestat],–,"safe, well-tolerated"
